Legend:
HSV Pol and UL42 = target: T1, HSV Pol and UL42 (Human herpesvirus 1, UniProt P10226); assay: Inhibition of UL42-mediated long-chain DNA synthesis (polymerase assay, poly(dA)/oligo(dT) primer/template); format: biochemical
T1 construct: made in house; host or cells: insect cells infected with recombinant baculoviruses
Description: To perform structure-activity studies, “alanine scan” mutants of peptide E, in which each non-alanine residue was individually converted to an alanine, were synthesized and tested for their ability to inhibit long-chain DNA synthesis by Pol and UTL42. A poly(dA)/oligo(dT15) template/primer was employed. On this primer/template, Pol alone adds only one or two bases, but when UL42 is present, longer DNA products are formed. DNA products greater than 18 bases were quantified at varying peptide concentrations and expressed as a percentage of products formed by Pol/UL42 in the presence of vehicle control.
Reaction mixtures contained 50 mM Tris-Cl (pH 7.6), 100 mM (NH4)2SO4, 3 mM MgCl2, 0.1 mM EDTA, 1 mM dithiothreitol, 0.1 μg BSA, 4% glycerol, 0.25 μg of poly(dA)-oligo(dT) primer/template, […] [^32P]-TTP (5 Ci/mMol), 100 fmol of HSV Pol, 200 fmol of UL42 and varying concentrations of peptide inhibitors in a final volume of 25 μL. Reactions were carried out at 37° C. for 5 to 10 minutes. Reactions were stopped by placing them on ice and adding 5 μL of alkaline loading buffer (2 mM EDTA, 50 mM NaOH, 2.5% glycerol, 0.025% bromcresol green) and were then loaded onto a 4% alkaline agarose gel. Gels were dried overnight and used to expose film and phosphoresence screens. Because Pol alone added only 1-2 nucleotides to the 15 base primer, newly synthesized DNA larger than 18 bases was defined as long-chain and quantified using a Molecular Dynamics Phosphorimager.

[1] = CD spectroscopy, helicity from ellipticity at 222 nm; format: physicochemical; details: calculated from ellipticity values at 222 nm from CD measurements
Protocol: CD spectroscopy was performed in order to determine if the peptides with the least inhibitory activity were altered structurally. […] Therefore, the lack of inhibitory activity of these two mutants may be at least in part due to alterations in structure.
Lyophilized peptides were resuspended in 10 mM KF and adjusted to pH 8 with KOH. Spectra were recorded at the indicated peptide concentrations with an Aviv 62DS SpectroPolarimeter at 0° C. in a 0.1 cm pathlength cuvette. Wavelength scans were recorded at 1 nm intervals with a 5 second averaging time, and 5 to 10 scans were averaged. Peptide concentrations were determined by quantitative amino acid analysis. Unfolding curves were obtained by monitoring mean residue ellipticity at 222 nm as a function of the concentration of guanidine-HCl and temperature.

T1 sequence (P10226 whole entry): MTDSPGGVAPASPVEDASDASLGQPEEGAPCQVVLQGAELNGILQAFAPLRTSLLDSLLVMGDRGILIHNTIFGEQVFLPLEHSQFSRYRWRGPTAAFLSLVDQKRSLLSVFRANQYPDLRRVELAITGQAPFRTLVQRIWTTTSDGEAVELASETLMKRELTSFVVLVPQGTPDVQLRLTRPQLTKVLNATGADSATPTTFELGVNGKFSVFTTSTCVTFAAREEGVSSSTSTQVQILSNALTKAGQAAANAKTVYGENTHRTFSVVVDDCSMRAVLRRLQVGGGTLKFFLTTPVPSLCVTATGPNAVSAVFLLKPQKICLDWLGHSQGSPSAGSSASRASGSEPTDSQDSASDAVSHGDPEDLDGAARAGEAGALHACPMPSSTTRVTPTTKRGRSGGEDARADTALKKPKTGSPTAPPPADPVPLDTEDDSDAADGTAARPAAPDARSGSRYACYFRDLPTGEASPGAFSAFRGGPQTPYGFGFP

CSCC[C@H](NC(=O)[C@H](CCCNC(=N)N)NC(=O)[C@H](CCCNC(=N)N)NC(=O)[C@@H](NC(=O)[C@H](CCC(=O)O)NC(=O)[C@H](CCC(=O)O)NC(=O)[C@H](C)NC(=O)[C@H](C)NC(=O)[C@H](C)NC(C)=O)[C@@H](C)O)C(=O)N[C@@H](CC(C)C)C(=O)N[C@@H](Cc1c[nH]cn1)C(=O)N[C@@H](CCCNC(=N)N)C(=O)N[C@@H](C)C(=O)N[C@@H](Cc1ccccc1)C(=O)N[C@@H](CC(=O)O)C(=O)N[C@H](C(=O)N[C@@H](CC(C)C)C(=O)N[C@@H](C)C(N)=O)[C@@H](C)O [Peptide T20A]
IC50 (HSV Pol and UL42): > 100 µM
% Helicity [1]: 16%

CSCC[C@H](NC(=O)[C@H](CCCNC(=N)N)NC(=O)[C@H](CCCNC(=N)N)NC(=O)[C@@H](NC(=O)[C@H](CCC(=O)O)NC(=O)[C@H](CCC(=O)O)NC(=O)[C@H](C)NC(=O)[C@@H](NC(=O)[C@H](C)NC(C)=O)[C@@H](C)O)[C@@H](C)O)C(=O)N[C@@H](CC(C)C)C(=O)N[C@@H](Cc1c[nH]cn1)C(=O)N[C@@H](CCCNC(=N)N)C(=O)N[C@@H](C)C(=O)N[C@@H](C)C(=O)N[C@@H](CC(=O)O)C(=O)N[C@H](C(=O)N[C@@H](CC(C)C)C(=O)N[C@@H](C)C(N)=O)[C@@H](C)O [Peptide F32A]
IC50 (HSV Pol and UL42): > 100 µM
% Helicity [1]: 28%

Ac-ATAEETRRMLARAFDTLA-NH2 (N-terminus and C-terminus assumed) [Peptide H29A]
IC50 (HSV Pol and UL42): > 100 µM
% Helicity [1]: 25%

CSCC[C@H](NC(=O)[C@H](CCCNC(=N)N)NC(=O)[C@H](CCCNC(=N)N)NC(=O)[C@@H](NC(=O)[C@H](CCC(=O)O)NC(=O)[C@H](CCC(=O)O)NC(=O)[C@H](C)NC(=O)[C@@H](NC(=O)[C@H](C)NC(=O)CNC(=O)[C@H](C)NC(=O)CNC(=O)[C@@H](NC(=O)[C@H](C)NC(=O)CNC(=O)[C@H](Cc1ccccc1)NC(=O)CNC(=O)[C@H](C)NC(=O)[C@H](C)NC(=O)[C@H](CCCNC(=N)N)NC(=O)[C@H](CC(C)C)NC(=O)[C@H](CCCNC(=N)N)NC(=O)[C@H](C)NC(=O)[C@H](C)NC(=O)[C@@H](NC(=O)[C@H](CC(=O)O)NC(=O)[C@H](CC(=O)O)NC(C)=O)C(C)C)C(C)C)[C@@H](C)O)[C@@H](C)O)C(=O)N[C@@H](CC(C)C)C(=O)N[C@@H](Cc1c[nH]cn1)C(=O)N[C@@H](CCCNC(=N)N)C(=O)N[C@@H](C)C(=O)N[C@@H](Cc1ccccc1)C(=O)N[C@@H](CC(=O)O)C(=O)N[C@H](C(=O)N[C@@H](CC(C)C)C(=O)N[C@@H](C)C(=O)O)[C@@H](C)O [Peptide A]
% Helicity [1]: 20%

Ac-ATAEETRRALHRAFDTLA-NH2 (N-terminus and C-terminus assumed) [Peptide M27A]
IC50 (HSV Pol and UL42): > 100 µM

Ac-ATAEETRRMLHAAFDTLA-NH2 (N-terminus and C-terminus assumed) [Peptide R30A]
IC50 (HSV Pol and UL42): > 100 µM
% Helicity [1]: 26%

CSCC[C@H](NC(=O)[C@H](CCCNC(=N)N)NC(=O)[C@H](CCCNC(=N)N)NC(=O)[C@@H](NC(=O)[C@H](CCC(=O)O)NC(=O)[C@H](C)NC(=O)[C@H](C)NC(=O)[C@@H](NC(=O)[C@H](C)N)[C@@H](C)O)[C@@H](C)O)C(=O)N[C@@H](CC(C)C)C(=O)N[C@@H](Cc1c[nH]cn1)C(=O)N[C@@H](CCCNC(=N)N)C(=O)N[C@@H](C)C(=O)N[C@@H](Cc1ccccc1)C(=O)N[C@@H](CC(=O)O)C(=O)N[C@H](C(=O)N[C@@H](CC(C)C)C(=O)N[C@@H](C)C(=O)O)[C@@H](C)O [Peptide E22A]
IC50 (HSV Pol and UL42): > 100 µM

Reference: patent US7388070B1, “Structure-based approach to design of inhibitors of protein-processivity factor interactions” (priority 1999, dated 2008)
